The values that follow are results of earlier work, collected in US20240318128A1, “BIOFUNGICIDE PRODUCTION BY CONIOCHAETA AND APPLICATION IN CONTROL OF EARLY BLIGHT OF POTATO” (The United States of America, as represented by the …, priority 2023, published 2024).

The test system of the data set is yeast and bacteria. Particulars: Segeth et al. 2003.

coniocetin: the spectrum of inhibition result is on record as “inhibits”.
